Measurements as given in ChEMBL document CHEMBL1152527, “Tessaric acid derivatives induce G2/M cell cycle arrest in human solid tumor cell lines” (2009).
The source made the active and inactive calls. The calls are words filed in the database; no cut-off is given here.

Experiments:
Format in all cases: functional
SW1573 [1] = assay: Growth inhibition of human SW1573 cells after 48 hrs by sulforhodamine B assay; conditions: SW1573, 48 h
HBL-100 = assay: Growth inhibition of human HBL100 cells after 48 hrs by sulforhodamine B assay; conditions: HBL-100, 48 h
T47D [2] = assay: Growth inhibition of human T47D cells after 48 hrs by sulforhodamine B assay
WiDr [3] = assay: Growth inhibition of human WiDr cells after 48 hrs by sulforhodamine B assay
HeLa [4] = assay: Growth inhibition of human HeLa cells after 48 hrs by sulforhodamine B assay
A2780 = assay: Growth inhibition of human A2780 cells after 48 hrs by sulforhodamine B assay; conditions: A2780, 48 h
SW1573 [5] = assay: Cell cycle arrest in human SW1573 cells assessed as decrease in accumulation at S phase at 15 uM after 24 hrs by propidium iodide staining-based FACS analysis
SW1573 [6] = assay: Cell cycle arrest in human SW1573 cells assessed as accumulation at G2/M phase at 35 uM after 24 hrs by propidium iodide staining-based FACS analysis
HeLa [7] = assay: Cell cycle arrest in human HeLa cells assessed as accumulation at G2/M phase at 15 uM after 24 hrs by propidium iodide staining-based FACS analysis
SW1573 [8] = assay: Cell cycle arrest in human SW1573 cells assessed as accumulation at G2/M phase at 15 uM after 24 hrs by propidium iodide staining-based FACS analysis
T47D [9] = assay: Cell cycle arrest in human T47D cells assessed as increase in accumulation at sub G0 phase at 15 to 35 uM treated for 24 hrs measured after 24 hrs of drug washout by propidium iodide staining-based FACS analysis
HeLa [10] = assay: Cell cycle arrest in human HeLa cells assessed as accumulation at S phase at 35 uM after 24 hrs by propidium iodide staining-based FACS analysis
SW1573 [11] = assay: Cell cycle arrest in human SW1573 cells assessed as decrease in accumulation at G0/G1 phase at 35 uM after 24 hrs by propidium iodide staining-based FACS analysis
HeLa [12] = assay: Cell cycle arrest in human HeLa cells assessed as decrease in accumulation at S phase at 15 uM after 24 hrs by propidium iodide staining-based FACS analysis
WiDr [13] = assay: Cell cycle arrest in human WiDr cells assessed as increase in accumulation at sub G0 phase at 15 to 35 uM treated for 24 hrs measured after 24 hrs of drug washout by propidium iodide staining-based FACS analysis
SW1573 [14] = assay: Cell cycle arrest in human SW1573 cells assessed as accumulation at S phase at 35 uM after 24 hrs by propidium iodide staining-based FACS analysis
HeLa [15] = assay: Cell cycle arrest in human HeLa cells assessed as decrease in accumulation at G0/G1 phase at 35 uM after 24 hrs by propidium iodide staining-based FACS analysis
WiDr [16] = assay: Cell cycle arrest in human WiDr cells assessed as accumulation at G2/M phase at 35 uM after 24 hrs by propidium iodide staining-based FACS analysis
WiDr [17] = assay: Cell cycle arrest in human WiDr cells assessed as decrease in accumulation at S phase at 35 uM after 24 hrs by propidium iodide staining-based FACS analysis
HeLa [18] = assay: Cell cycle arrest in human HeLa cells assessed as accumulation at G2/M phase at 35 uM after 24 hrs by propidium iodide staining-based FACS analysis
T47D [19] = assay: Cell cycle arrest in human T47D cells assessed as accumulation at G2/M phase at 35 uM after 24 hrs by propidium iodide staining-based FACS analysis
T47D [20] = assay: Cell cycle arrest in human T47D cells assessed as decrease in accumulation at S phase at 35 uM after 24 hrs by propidium iodide staining-based FACS analysis

| Compound | GI50 (SW1573 [1]; read-out: GI50) | GI50 (HBL-100; read-out: GI50) | pGI50 (T47D [2]) | GI50 (T47D [2]; read-out: GI50) | GI50 (WiDr [3]; read-out: GI50) | GI50 (HeLa [4]; read-out: GI50) | GI50 (A2780; read-out: GI50) | GI50 (SW1573 [1]; read-out: pGI50 (converted)) | GI50 (HBL-100; read-out: pGI50 (converted)) | GI50 (WiDr [3]; read-out: pGI50 (converted)) | GI50 (HeLa [4]; read-out: pGI50 (converted)) | GI50 (A2780; read-out: pGI50 (converted)) | also measured |
| --- | --- | --- | --- | --- | --- | --- | --- | --- | --- | --- | --- | --- | --- |
| C=C(C(=O)O)[C@@H]1CC[C@@]2(C)CCCC(C)=C2C1 | > 100 µM | > 100 µM | 4 | > 100 µM | > 100 µM | > 100 µM | > 100 µM |  |  |  |  |  | pGI50 (SW1573 [1]): 4; pGI50 (HBL-100): 4; pGI50 (WiDr [3]): 4; pGI50 (HeLa [4]): 4; pGI50 (A2780): 4 |
| C=C(C(=O)OC)[C@@H]1CCC2=C[C@H](O)C[C@H](C)[C@@]2(C)C1 | 5 µM | 12 µM |  | 11 µM | 17 µM | 29 µM | 11 µM | 5.3 µM | 4.91 µM | 4.77 µM | 4.54 µM | 4.95 µM | Activity (SW1573 [5]): Active; Activity (SW1573 [6]): Active; GI50 (T47D [2]; read-out: pGI50 (converted)): 4.97 µM; Activity (HeLa [7]): Active; Activity (SW1573 [8]): Active; Activity (T47D [9]): Active; Activity (HeLa [10]): Active; Activity (SW1573 [11]): Active; Activity (HeLa [12]): Active; Activity (WiDr [13]): Active; Activity (SW1573 [14]): Active; Activity (HeLa [15]): Active; Activity (WiDr [16]): Active; Activity (WiDr [17]): Active; Activity (HeLa [18]): Active; Activity (T47D [19]): Active; Activity (T47D [20]): Active |
| C=C(C(=O)OC)[C@@H]1CC[C@@]2(C)CCCC(C)=C2C1 | 18 µM | 14 µM | 4.48 | 35 µM | 38 µM | 13 µM | 18 µM | 4.74 µM | 4.86 µM | 4.45 µM | 4.88 µM | 4.74 µM |  |
| CC[C@@]1(O)C(=O)OCc2c1cc1n(c2=O)Cc2cc3ccccc3nc2-1 [CAMPTOTHECIN] | 0.21 µM | 0.23 µM |  | 1.9 µM | 1.7 µM | 1.3 µM | 0.46 µM |  |  |  |  |  |  |
| O=c1[nH]cc(F)c(=O)[nH]1 [FLUOROURACIL] | 4.1 µM | 5.5 µM |  | 29 µM | 50 µM | 19 µM | 4.4 µM |  |  |  |  |  |  |
